How the values were obtained:
Type in all cases: functional
A549 [1] = assay: Cell cycle arrest in human A549 cells assessed as accumulation at G0/G1 phase at 30 nM after 24 hrs by flow cytometry
A549 [2] = assay: Cell cycle arrest in human A549 cells assessed as accumulation at G2/M phase at 30 nM after 24 hrs by flow cytometry
A549 [3] = assay: Cell cycle arrest in human A549 cells assessed as accumulation at S phase at 30 nM after 24 hrs by flow cytometry

`CN[C@@H]1C[C@H]2O[C@@](C)([C@@H]1OC)n1c3ccccc3c3c4c(c5c6ccccc6n2c5c31)C(=O)NC4` [STAUROSPORINE] was tested, and the Activity (A549 [1]) was 74.6%, the Activity (A549 [2]) was 9.1% and the Activity (A549 [3]) was 16.4%.
